Assays:
Assay type in all cases: in vivo
potato tubers [1] = test: Sprout inhibition after dipping tubers in 8 mM emulsions of purified compounds (Example 3); details: for % eyes sprouted: 8 mM emulsion with Tween 20, dipping 5 hours, then 10 days in jars at ambient temperature; for dormancy of tubers under repeated treatment: emulsion, dipped 5 hours, kept 10 days, then dipped again, after two months
Protocol: Therefore essential oils were purified by column chromatography and substantially pure compounds were used.
Emulsion of the compounds were prepared of 8 mM concentration of each compound in distilled water containing 2x10-6 % Tween 20 as emulsifier ( control tubers were treated with Tween 20 only). Tubers were treated by dipping each tuber in emulsion for 5 hours, where upon excess liquid was allowed to drain off. Six tubers per treatment were used, with two replicates, and all experiments were repeated once. Tubers were then kept in jars for 10 days at ambient temperature. Tubers were then evaluated as in example 1 & 2 for percentage of sprouted eyes, tuber texture and fungal growth.
Geranyl acetate inhibited sprouting by 42%. […] A&M plants 3 (3) no. 1452 pp 183].
Geraniol, citral, citranellol, citranellal and menthyl acetate were as effective as reported monoterpenes such as benzaldehyde, cinnamaldehyde, eugenol and thymol (U.S.patent no. 5,129,951).

potato tubers [2] = test: Sprout inhibition by dipping in geraniol and citral at different concentrations (Example 4); details: for % eyes sprouted: dipping 5 hours, then 12 days in jars; for sprouting till 20 days after treatment: experiment continued till 20 days after treatment (6 and 8 mM)
Protocol: Tubers were treated with geraniol and citral the two promising chemicals at different concentrations. The terpenes were applied at 4mM, 6mM and 8m M for 5 hours by dipping the tubers and then the tubers were kept in jars for 12 days.

potato tubers [3] = test: Sprout inhibition by exposure to vapours of volatilized compounds for seven days (Example 6); details: for % eyes sprouted: exposed to vapours (1 ml on filter paper, saturated atmosphere) for seven days, 14 days after removal; for sprouting 18 days after removal from treatment flask: exposed to vapours for seven days
Source text: Tubers treated with emulsions of different aromatic compounds remained dormant. Therefore, it was tried to find out the response when tubers were exposed to vapours of volatilized compounds for sprout inhibition. Substantially pure compounds were used as in other examples. Six potatoes were placed in air tight jars containing 9 cm piece of filter paper saturated with one ml of the liquid compound. These amounts were sufficient to produce a saturated atmosphere in the flask. The filter paper was placed in the cap of the flask so that no direct physical contact with the tuber occurred. The tubers were removed after seven days and placed in flasks containing fresh air at ambient temperature. Control tubers were placed in sealed flask lacking any added compound. […] Such short term treatment would greatly lessen costs to the potato industry.

potato tubers [4] = test: Sprout inhibition by dipping in combinations of monoterpenes and other compounds (Example 5); details: dipping five hours in aqueous solution with Tween 20, 4-8 mM
Protocol: Combination of 4-8 mM of each geraniol, citral , citronella and citronellal were tried to determine the best combination. Along with this some other compounds were also tried. The terpenes were applied by dipping the tubers for five hours in aqueous solution of the monoterpenes containing Tween 20 as emulsifying agent. […] Other chemicals were not very effective. Results are given in table 5.Menthol, anisaldehyde, thymol, cinnamom bark oil and thymol has been used earlier (U.S. Patent No. 5,129,951 ) and were effective.

potato tubers [5] = test: Sprout inhibition by exposure to fumes of citral from a vaporizer for 1, 2 or 4 days (Example 7); details: 14 days after treatment
Protocol: The tubers were exposed to fumes of citral with the help of a vaporizer at ambient temperature in a close atmosphere for 24 hour, 48 hour and 96 hours. The tubers were then placed in flask containing fresh air and free of any additional volatilized compound. Control tubers were placed in sealed flasks lacking any added compounds. Fourteen days after treatment all tubers examined for percentage of eyes sprouted, tuber texture and fungal growth. 7

[6] = 8 mM emulsion, dipping 5 hours, 10 days

SMILES	% eyes sprouted (potato tubers [1]) [%]	effect on tuber sprouting (in words) (potato tubers [1]; [6])	% eyes sprouted (potato tubers [3]) [%]	sprouting 18 days after removal from treatment flask (potato tubers [3])	% eyes sprouted After 3 days (potato tubers [4]) [%]	% eyes sprouted after 7 days (potato tubers [4]) [%]	% eyes sprouted after 14 days (potato tubers [4]) [%]	further results
C=C(C)[C@@H]1CC=C(C)C(=O)C1 [I-carvone]	100	no significant effect	–	–	–	–	–	–
CC(C)=CCC/C(C)=C/CO [Geraniol]	16	completely inhibited sprouting	0.0	remained unsprouted	–	–	–	dormancy of tubers under repeated treatment (potato tubers [1]): completely dormant; % eyes sprouted (potato tubers [2]; 4mM): 7.5%; % eyes sprouted (potato tubers [2]; 6mM): 0.0%; % eyes sprouted (potato tubers [2]; 8 mM): 0.0%; sprouting till 20 days after treatment (potato tubers [2]): sprouting was not observed
Cc1ccc(C(C)C)c(O)c1 [Thymol]	–	–	–	–	79	98	98	–
CC(=O)OC1CC(C)CCC1C(C)C (stereo not drawn) [Menthyl acetate]	–	–	0.0	remained unsprouted	0.0	0.0	0.0	–
CC=Cc1ccc(OC)cc1 [Anethol]	–	–	–	–	0.0	0.0	51	–
CC(=O)OC/C=C(\C)CCC=C(C)C [Geranyl acetate]	58	–	–	–	–	–	–	inhibited sprouting by (potato tubers [1]; [6]): 42%
CC(C)=CCC[C@H](C)CCO [l-citronellol]	0.0	–	–	–	–	–	–	–
C=C(C)[C@H]1CC=C(C)C(=O)C1 [d-carvone]	93	no significant effect	–	–	–	–	–	–
COc1ccc(C=O)cc1 [Anisaldehyde]	–	–	–	–	78	96	96	–
CC(C)=CCCC(C)=CC=O [Citral]	19	completely inhibited sprouting	0.0	remained unsprouted	–	–	–	dormancy of tubers under repeated treatment (potato tubers [1]): completely dormant; % eyes sprouted (potato tubers [2]; 4mM): 4.1%; % eyes sprouted (potato tubers [2]; 6mM): 0.0%; % eyes sprouted (potato tubers [2]; 8 mM): 0.0%; sprouting till 20 days after treatment (potato tubers [2]): sprouting was not observed; % eyes sprouted (potato tubers [5]; exposure to fumes for 1 Day (24 hour)): 18.5%; % eyes sprouted (potato tubers [5]; exposure to fumes for 2 Days (48 hour)): 8.3%; % eyes sprouted (potato tubers [5]; exposure to fumes for 4 Days (96 hours)): 0.0%
CC(C)=CCC[C@@H](C)CCO [d-citronellol]	17	–	0.0	remained unsprouted	–	–	–	–
C=CC(C)(O)CCC=C(C)C (stereo not drawn) [Linalool]	100	no significant effect	–	–	–	–	–	–
CC1CCC(C(C)C)C(O)C1 (stereo not drawn) [Menthol]	–	–	–	–	29	29	29	–
CC12CCC(CC1=O)C2(C)C (stereo not drawn) [Camphor]	89	no significant effect	–	–	–	–	–	–
CC(C)=CCCC(C)CC=O (stereo not drawn) [citronellal]	–	–	0.0	remained unsprouted	–	–	–	–
